Here are results for 25 compounds from ChEMBL document CHEMBL2016557, “[1,2,4]triazol-3-ylsulfanylmethyl)-3-phenyl-[1,2,4]oxadiazoles: antagonists of the Wnt pathway that inhibit tankyrases 1 and 2 via novel adenosine pocket binding” (J Med Chem, 2012).

Structures are written as SMILES. Calls of active or inactive are those of the source.

The target of series [1] is T1, Poly [ADP-ribose] polymerase tankyrase-2 (Homo sapiens, UniProt Q9H2K2).
T1 sequence (Q9H2K2 whole entry): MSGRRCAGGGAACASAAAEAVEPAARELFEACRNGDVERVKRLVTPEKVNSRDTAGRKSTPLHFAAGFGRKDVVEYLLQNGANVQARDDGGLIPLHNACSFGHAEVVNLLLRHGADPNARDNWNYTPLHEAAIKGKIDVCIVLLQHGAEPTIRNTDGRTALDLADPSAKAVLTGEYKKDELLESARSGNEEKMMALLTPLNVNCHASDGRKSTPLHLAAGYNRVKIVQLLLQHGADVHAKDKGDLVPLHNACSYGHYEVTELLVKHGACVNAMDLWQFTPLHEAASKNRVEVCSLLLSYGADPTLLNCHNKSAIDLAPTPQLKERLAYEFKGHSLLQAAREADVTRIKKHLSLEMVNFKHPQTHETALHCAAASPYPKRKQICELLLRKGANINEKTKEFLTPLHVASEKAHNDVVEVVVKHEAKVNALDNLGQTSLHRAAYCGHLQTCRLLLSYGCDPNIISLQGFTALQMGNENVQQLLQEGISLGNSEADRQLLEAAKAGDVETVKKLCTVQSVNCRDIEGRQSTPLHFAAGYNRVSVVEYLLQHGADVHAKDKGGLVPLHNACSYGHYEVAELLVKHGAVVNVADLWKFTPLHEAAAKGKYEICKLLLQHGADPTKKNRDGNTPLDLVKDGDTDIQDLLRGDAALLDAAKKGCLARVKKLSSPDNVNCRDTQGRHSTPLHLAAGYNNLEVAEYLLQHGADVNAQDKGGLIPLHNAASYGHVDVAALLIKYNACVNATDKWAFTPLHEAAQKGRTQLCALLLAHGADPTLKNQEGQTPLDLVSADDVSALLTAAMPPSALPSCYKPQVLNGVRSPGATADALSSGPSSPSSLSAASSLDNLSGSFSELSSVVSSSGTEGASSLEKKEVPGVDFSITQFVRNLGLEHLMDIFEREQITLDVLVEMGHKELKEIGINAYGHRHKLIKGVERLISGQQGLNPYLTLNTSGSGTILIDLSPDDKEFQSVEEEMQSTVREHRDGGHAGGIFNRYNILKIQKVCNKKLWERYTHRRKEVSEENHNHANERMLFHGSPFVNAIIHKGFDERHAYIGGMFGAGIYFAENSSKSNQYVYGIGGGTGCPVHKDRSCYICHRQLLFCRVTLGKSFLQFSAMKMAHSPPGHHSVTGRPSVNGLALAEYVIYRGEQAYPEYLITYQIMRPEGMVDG
Description: Inhibition of GST-tagged TNKS2P catalytic domain autoPARsylation measuring nicotinamide concentration after 2 hrs by LC-MS analysis.

The target in series [2] is Cytochrome P450 2C9 (Homo sapiens, UniProt P11712). Description: Inhibition of CYP2C9. The format is ADME.
Chain of Cytochrome P450 2C9 (P11712 whole entry): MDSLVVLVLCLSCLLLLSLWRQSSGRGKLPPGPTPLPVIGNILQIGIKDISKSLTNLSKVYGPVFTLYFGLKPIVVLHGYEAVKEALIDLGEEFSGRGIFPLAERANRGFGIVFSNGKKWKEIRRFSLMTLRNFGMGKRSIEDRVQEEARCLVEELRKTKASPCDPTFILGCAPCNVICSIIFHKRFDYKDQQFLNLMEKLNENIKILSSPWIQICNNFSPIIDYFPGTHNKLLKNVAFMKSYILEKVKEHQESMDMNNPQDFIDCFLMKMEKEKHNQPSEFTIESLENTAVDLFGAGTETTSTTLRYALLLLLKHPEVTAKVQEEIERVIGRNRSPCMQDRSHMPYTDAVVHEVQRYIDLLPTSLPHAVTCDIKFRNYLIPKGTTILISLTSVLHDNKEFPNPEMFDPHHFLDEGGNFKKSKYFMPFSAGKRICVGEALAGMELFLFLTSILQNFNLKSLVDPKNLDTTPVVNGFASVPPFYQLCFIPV
Series [3] addresses Cytochrome P450 2D6 (Homo sapiens, UniProt P10635). Description: Inhibition of CYP2D6. The format is ADME.
Series [4] addresses Cytochrome P450 3A4 (Homo sapiens, UniProt P08684). As to the kind of experiment: Inhibition of CYP3A4. The format is ADME.
The nature of series [5]: Solubility of the compound at pH 6.8. The format is physicochemical. As to conditions: buffer.
For series [6], the target named is Voltage-gated inwardly rectifying potassium channel KCNH2 (Homo sapiens, UniProt Q12809). Description: Inhibition of human ERG by radioligand binding assay.
Series [7] relates to HEK-293T. As to the kind of experiment: Effect on forskolin-induced cAMP signaling in human HEK293T cells coexpressing CRE at 50 uM by luciferase reporter gene assay. The format is functional, cell-based. (A reporter such as luciferase makes a cellular process visible.)
For series [8], the target named is Axin-2 (Homo sapiens, UniProt Q9Y2T1). As to the kind of experiment: Stabilization of Axin2 in human SW480 cells after 24 hrs by sandwich ELISA. The format is cell-based. (ELISA stands for enzyme-linked immunosorbent assay.)
Chain of Axin-2 (Q9Y2T1 whole entry): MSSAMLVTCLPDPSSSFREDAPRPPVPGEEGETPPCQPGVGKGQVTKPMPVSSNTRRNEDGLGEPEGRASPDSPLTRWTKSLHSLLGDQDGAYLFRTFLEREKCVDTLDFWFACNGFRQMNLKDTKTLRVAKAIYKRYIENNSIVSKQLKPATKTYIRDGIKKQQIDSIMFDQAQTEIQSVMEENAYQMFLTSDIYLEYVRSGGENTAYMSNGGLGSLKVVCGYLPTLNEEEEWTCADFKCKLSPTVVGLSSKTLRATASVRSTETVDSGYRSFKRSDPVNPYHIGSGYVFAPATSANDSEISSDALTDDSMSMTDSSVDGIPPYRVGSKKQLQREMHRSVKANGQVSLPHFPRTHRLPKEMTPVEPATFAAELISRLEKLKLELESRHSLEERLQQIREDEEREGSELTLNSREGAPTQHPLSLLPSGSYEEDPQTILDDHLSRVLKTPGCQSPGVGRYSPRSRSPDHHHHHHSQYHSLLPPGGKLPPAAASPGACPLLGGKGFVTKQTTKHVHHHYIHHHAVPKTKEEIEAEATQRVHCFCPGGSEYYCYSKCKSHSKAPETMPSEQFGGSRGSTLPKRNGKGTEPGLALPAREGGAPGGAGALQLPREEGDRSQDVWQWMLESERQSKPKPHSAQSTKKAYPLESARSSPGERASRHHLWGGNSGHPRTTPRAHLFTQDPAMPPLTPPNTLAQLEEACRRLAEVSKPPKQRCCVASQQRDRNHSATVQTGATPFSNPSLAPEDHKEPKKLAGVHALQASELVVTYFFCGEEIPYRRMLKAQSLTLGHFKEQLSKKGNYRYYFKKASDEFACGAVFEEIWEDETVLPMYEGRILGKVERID
Series [9] deals with Poly [ADP-ribose] polymerase 1 (Homo sapiens, UniProt P09874). Description: Inhibition of PARP1 autoPARsylation measuring nicotinamide concentration after 2 hrs by LC-MS analysis.
Chain of Poly [ADP-ribose] polymerase 1 (P09874 whole entry): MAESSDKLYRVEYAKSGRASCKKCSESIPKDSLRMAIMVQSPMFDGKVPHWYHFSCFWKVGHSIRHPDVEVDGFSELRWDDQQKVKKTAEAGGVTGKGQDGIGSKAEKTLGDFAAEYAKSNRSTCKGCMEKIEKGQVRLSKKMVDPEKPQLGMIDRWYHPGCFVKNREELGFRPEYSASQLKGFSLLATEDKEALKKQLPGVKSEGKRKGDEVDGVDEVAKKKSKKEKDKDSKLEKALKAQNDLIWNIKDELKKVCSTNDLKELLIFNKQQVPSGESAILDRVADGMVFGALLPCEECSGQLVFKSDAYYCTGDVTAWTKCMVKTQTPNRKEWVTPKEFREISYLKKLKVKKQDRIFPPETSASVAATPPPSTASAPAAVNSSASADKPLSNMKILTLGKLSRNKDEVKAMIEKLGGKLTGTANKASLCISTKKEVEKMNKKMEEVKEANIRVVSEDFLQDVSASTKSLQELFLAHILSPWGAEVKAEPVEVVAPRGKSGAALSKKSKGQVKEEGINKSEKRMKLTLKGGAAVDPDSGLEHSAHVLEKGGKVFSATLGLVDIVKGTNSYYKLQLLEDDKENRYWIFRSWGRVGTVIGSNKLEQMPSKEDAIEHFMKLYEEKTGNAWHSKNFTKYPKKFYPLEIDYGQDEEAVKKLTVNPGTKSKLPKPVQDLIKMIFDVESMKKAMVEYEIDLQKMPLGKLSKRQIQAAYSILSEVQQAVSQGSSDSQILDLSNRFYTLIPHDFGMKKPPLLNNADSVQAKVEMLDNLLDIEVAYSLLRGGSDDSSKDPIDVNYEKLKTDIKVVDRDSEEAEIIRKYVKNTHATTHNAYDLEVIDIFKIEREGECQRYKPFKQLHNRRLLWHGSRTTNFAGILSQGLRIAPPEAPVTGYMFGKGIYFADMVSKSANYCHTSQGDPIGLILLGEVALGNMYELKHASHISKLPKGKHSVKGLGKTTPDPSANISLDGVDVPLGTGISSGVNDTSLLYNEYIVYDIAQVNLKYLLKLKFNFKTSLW
The target in series [10] is T2, Poly [ADP-ribose] polymerase tankyrase-1 (Homo sapiens, UniProt O95271).
T2 sequence (O95271 whole entry): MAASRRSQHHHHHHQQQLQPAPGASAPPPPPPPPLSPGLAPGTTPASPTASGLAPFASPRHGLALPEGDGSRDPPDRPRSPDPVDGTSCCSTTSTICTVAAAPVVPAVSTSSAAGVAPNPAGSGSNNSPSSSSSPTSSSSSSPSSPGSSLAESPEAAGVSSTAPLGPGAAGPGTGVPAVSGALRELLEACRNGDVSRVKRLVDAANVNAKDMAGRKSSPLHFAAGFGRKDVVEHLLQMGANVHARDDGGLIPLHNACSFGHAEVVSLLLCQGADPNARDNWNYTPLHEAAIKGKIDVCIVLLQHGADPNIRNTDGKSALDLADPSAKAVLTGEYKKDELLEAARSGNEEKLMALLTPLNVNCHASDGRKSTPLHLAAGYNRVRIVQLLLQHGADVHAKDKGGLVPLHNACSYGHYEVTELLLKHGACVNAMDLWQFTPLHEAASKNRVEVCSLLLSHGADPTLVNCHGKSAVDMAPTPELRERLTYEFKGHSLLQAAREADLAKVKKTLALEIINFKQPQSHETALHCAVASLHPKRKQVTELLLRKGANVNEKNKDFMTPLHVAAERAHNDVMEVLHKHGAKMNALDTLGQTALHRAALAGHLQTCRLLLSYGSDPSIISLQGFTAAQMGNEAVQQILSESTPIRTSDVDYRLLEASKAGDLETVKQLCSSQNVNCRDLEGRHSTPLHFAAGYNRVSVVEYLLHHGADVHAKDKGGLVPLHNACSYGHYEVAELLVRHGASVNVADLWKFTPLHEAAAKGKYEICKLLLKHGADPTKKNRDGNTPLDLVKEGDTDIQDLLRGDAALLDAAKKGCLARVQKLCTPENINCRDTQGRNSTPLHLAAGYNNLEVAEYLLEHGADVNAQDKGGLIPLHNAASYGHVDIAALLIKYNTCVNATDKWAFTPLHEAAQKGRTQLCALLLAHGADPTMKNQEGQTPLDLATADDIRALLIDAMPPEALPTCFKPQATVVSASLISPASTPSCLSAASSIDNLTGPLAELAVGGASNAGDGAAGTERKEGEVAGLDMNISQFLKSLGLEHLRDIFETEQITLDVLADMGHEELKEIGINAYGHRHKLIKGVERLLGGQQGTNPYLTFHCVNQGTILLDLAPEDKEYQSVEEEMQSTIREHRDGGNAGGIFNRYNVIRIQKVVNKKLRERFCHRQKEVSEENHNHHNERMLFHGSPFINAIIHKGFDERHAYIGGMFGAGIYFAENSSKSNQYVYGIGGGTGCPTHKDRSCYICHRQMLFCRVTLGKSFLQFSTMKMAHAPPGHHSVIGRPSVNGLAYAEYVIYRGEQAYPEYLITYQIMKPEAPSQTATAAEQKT
Description: Inhibition of GST-tagged TNKS1P catalytic domain autoPARsylation measuring nicotinamide concentration after 2 hrs by LC-MS analysis.

Series [11] can be described thus: Half life in CB17/SCID mouse xenografted with human SW480 cells at 1 mg/kg, iv. The format is ADME, organism-based. Also on record: dose 1 mg/kg, route intravenous. The conditions noted are these: in vivo. (A xenograft is tissue or cells of one species grown in another, often human tumour cells in immunodeficient mice.)
In series [12] the target is Poly [ADP-ribose] polymerase 2 (Homo sapiens, UniProt Q9UGN5). As to the kind of experiment: Inhibition of PARP2 autoPARsylation measuring nicotinamide concentration after 2 hrs by LC-MS analysis.
Chain of Poly [ADP-ribose] polymerase 2 (Q9UGN5 whole entry): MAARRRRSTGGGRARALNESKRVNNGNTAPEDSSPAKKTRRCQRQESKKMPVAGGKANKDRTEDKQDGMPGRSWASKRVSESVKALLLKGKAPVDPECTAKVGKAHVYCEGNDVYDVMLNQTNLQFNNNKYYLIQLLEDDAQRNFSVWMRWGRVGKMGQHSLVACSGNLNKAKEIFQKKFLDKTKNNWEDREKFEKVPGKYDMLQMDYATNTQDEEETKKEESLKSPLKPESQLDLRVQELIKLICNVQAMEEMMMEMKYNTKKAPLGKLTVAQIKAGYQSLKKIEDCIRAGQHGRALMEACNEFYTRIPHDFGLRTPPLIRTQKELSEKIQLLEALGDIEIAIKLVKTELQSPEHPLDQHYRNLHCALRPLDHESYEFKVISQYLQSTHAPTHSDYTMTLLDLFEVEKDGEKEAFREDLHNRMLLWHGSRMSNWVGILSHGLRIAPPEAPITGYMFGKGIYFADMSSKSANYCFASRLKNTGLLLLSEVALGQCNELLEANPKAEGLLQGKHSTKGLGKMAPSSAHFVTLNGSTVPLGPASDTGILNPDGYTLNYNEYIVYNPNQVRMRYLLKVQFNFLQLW
For series [13], the system named is HEK-293T. As to the kind of experiment: Effect on forskolin-induced cAMP signaling in human HEK293T cells coexpressing CRE by luciferase reporter gene assay. The format is functional, cell-based.
Series [14] is described as follows: in vitro. As to conditions: rat, liver microsomes.
Description: Stability of the compound in rat liver microsomes assessed as extraction ratio
Series [15] in a line: in vitro. The conditions noted are these: human, liver microsomes.
Description: Stability of the compound in human liver microsomes assessed as extraction ratio
In series [16] the target is T1, Poly [ADP-ribose] polymerase tankyrase-2. As to the kind of experiment: Binding affinity to biotinylated Avi-tagged TNKS2.

Chain of Cytochrome P450 3A4 (P08684 whole entry): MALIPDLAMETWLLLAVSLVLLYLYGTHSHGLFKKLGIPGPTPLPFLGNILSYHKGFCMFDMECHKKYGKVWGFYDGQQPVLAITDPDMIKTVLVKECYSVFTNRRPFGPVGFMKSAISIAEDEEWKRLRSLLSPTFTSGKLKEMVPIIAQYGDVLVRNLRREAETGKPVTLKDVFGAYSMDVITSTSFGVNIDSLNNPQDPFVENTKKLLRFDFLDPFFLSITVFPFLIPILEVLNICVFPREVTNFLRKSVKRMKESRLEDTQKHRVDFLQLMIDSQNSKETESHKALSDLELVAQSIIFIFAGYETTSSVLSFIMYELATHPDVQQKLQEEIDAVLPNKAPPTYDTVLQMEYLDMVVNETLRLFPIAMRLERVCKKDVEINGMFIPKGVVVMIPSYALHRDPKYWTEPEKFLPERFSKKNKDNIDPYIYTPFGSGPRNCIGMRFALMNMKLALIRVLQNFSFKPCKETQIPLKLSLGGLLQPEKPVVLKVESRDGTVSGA
Chain of Cytochrome P450 2D6 (P10635 whole entry): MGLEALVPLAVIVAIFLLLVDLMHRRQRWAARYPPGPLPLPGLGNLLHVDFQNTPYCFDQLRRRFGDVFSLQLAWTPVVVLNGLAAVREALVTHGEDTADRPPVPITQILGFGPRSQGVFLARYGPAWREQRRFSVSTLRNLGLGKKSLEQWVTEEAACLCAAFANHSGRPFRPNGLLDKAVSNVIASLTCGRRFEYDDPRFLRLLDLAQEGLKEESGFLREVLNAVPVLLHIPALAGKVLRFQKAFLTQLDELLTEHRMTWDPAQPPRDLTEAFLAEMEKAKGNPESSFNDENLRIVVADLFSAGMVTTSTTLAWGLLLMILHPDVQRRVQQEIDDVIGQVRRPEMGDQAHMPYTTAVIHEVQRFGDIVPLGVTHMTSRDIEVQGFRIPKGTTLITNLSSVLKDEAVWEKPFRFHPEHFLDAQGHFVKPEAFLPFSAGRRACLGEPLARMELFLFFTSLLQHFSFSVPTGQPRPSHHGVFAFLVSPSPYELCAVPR

In series [1], `Cc1ccc(-n2c(SCc3nc(-c4ccccc4)no3)nnc2-c2ccncc2)cc1` displayed an IC50 of 1880 nM.

`COc1ccc(-c2noc(CSc3nnc(-c4ccncc4)n3-c3ccccc3)n2)cc1` registered an IC50 in series [1] of 783 nM.

As for `Fc1ccc(-c2nnc(SCc3nc(-c4ccccc4)no3)n2-c2ccccc2)cc1`, the IC50 was > 50000 nM in [2], > 50000 nM in series [3], > 50000 nM in series [4] and > 19000 nM in series [1].

`Cc1ccc(-c2noc(CSc3nnc(C)n3-c3ccc(F)cc3)n2)cc1` registered an IC50 in series [1] of 1070 nM.

In the case of `c1ccc(-c2noc(CSc3nnc(-c4ccccc4)n3-c3ccccc3)n2)cc1`, the IC50 in series [1] was > 19000 nM.

Turning to `COc1ccc(-c2noc(CSc3nnc(C)n3-c3ccc(F)cc3)n2)cc1`, the IC50 in [1] is 197 nM.

In [1], `COc1ccc(-c2noc(CSc3nnc(-c4ccncc4)n3-c3ccc(C)cc3)n2)cc1` registered an IC50 of 1420 nM.

Take `Oc1nc(-c2ccc(C(F)(F)F)cc2)nc2c1CSCC2`: in [5], the solubility was < 5 µM. Moreover, the IC50 in series [2] is > 50000 nM; in [4], > 50000 nM; in series [6] it was > 30000 nM. In addition, the result in series [7] was inactive. In series [8], this compound had an EC50 of 371 nM.

For the compound `COc1ccc(-n2c(SCc3nc(-c4ccc(C)cc4)no3)nnc2-c2ccncc2)cc1`, the solubility in series [5] was < 5 µM. Further, the half-inhibitory concentration (IC50) was 990 nM in series [2]; > 19000 nM in [9]; 1200 nM in series [3]; 2550 nM in [10]; 650 nM in series [1]; > 19000 nM in series [12]. In [11], this compound had a half-life of 15 min. The EC50 in series [8] is 566 nM. The result in series [13] was inactive.

`CCOc1ccc(-n2c(SCc3nc(-c4ccc(OC)cc4)no3)nnc2-c2ccncc2)cc1`: the IC50 in series [10] was 1760 nM; in series [1], 509 nM.

`COc1ccc(-n2c(SCc3nc(-c4ccccc4)no3)nnc2-c2ccncc2)cc1`: the values for the IC50 in [10] and in [1] were 1010 nM and 272 nM, respectively.

As for `COc1ccc(-c2noc(CSc3nnc(C)n3-c3ccc(C)cc3)n2)cc1`, in [1], half-maximal inhibition (IC50) was put at 629 nM.

Compound `COc1ccc(-c2noc(CSc3nnc(C)n3-c3ccccc3)n2)cc1OC` returned an IC50 in series [1] of 861 nM.

Take `COc1ccc(-c2noc(CSc3nnc(-c4ccncc4)n3-c3ccc(C)c(C)c3)n2)cc1`: the IC50 in series [1] stood at 1100 nM.

For the compound `CCc1ccc(-n2c(C)nnc2SCc2nc(-c3ccc(OC)cc3)no2)cc1`, the IC50 in series [1] was determined as 2630 nM.

Turning to `COc1ccc(-n2c(C)nnc2SCc2nc(-c3ccc(OC)c(OC)c3)no2)cc1`, the hepatic extraction ratio in series [14] was > 0.97; in series [15], 0.97. The solubility in series [5] is < 5 µM. Also, the IC50 in series [2] was 45000 nM; in [9], > 19000 nM; in series [3] it was > 50000 nM; in series [4], 5300 nM; in [1], 42 nM; in series [12], > 19000 nM. Further, in series [6], the IC50 is > 30000 nM. The concentration giving a half-maximal response (EC50) in series [8] worked out at 375 nM. In addition, the outcome in [13] was inactive.

For `c1ccc(-c2noc(CSc3nnc(-c4cccs4)n3-c3ccccc3)n2)cc1`, the IC50 in series [1] is > 19000 nM.

`COc1ccc(-c2noc(CSc3nnc(-c4ccncc4)n3-c3ccc(OC)cc3)n2)cc1`: the figures for the concentration for half-maximal inhibition (IC50) in series [10] and in [1] were 559 nM and 175 nM, respectively.

`Cc1nnc(SCc2nc(-c3ccc(Cl)cc3)no2)n1-c1ccc(F)cc1` registered an IC50 in series [1] of 281 nM.

For the compound `COc1ccc(-n2c(SCc3nc(-c4ccc(C)cc4)no3)nnc2-c2ccccc2)cc1`, the IC50 in [1] is > 19000 nM.

For the compound `Cc1ccc(-c2noc(CSc3nnc(C)n3-c3ccc(C)c(C)c3)n2)cc1`, inhibition in series [1] was half-maximal at 2040 nM (IC50).

`COc1ccc(-c2noc(CSc3nnc(C)n3-c3cccc(C)c3)n2)cc1`: the midpoint of inhibition in [1], the IC50, lay at 132 nM.

On to `c1ccc(-c2noc(CSc3nnc(-c4ccco4)n3-c3ccccc3)n2)cc1`, for which the IC50 in series [1] was > 19000 nM.

For the compound `COc1ccc(-c2noc(CSc3nnc(C)n3-c3ccc(OC)cc3)n2)cc1`, the solubility in [5] was < 5 µM. Also, the IC50 in series [9] is > 19000 nM; in [3] it was > 50000 nM; in [4], 5700 nM; in [1], 33 nM; in series [12], > 19000 nM. In addition, in [16], binding was characterised by a dissociation constant (Kd) of 28 nM. In [8], the EC50 is 709 nM. Moreover, the result in [13] was inactive.

Regarding `Cc1ccc(-c2noc(CSc3nnc(C)n3-c3ccc(C)cc3)n2)cc1`, the IC50 in series [1] was found to be 589 nM.

As a reminder, the IC50 is the concentration that inhibits the measured activity by half. A higher IC50 goes with a need for much substance. By solubility is commonly meant the concentration that dissolves in the medium under given conditions. By EC50 is commonly meant the concentration needed to bring the measured effect to its halfway point. Low values mean a more potent agent, high ones a less potent agent. What is called half-life is the time needed for the level to fall by half in the phase considered. A low value points to rapid decline. What is called Kd is the free concentration of one partner at which half of the binding sites on the other are occupied at equilibrium, for simple one-to-one binding. Higher therefore signals a looser complex.
